Measurements as given in patent EP0126970A2, “Anxiolytic and anti-depressant thienopyridine derivatives” (BEECHAM GROUP PLC, priority 1983, dated 1984).
Structures can show the parent of a compound that is named as a salt.

Legend:
benzodiazepine receptors [1] = assay: Radioligand binding, displacement of [3H]-βCCE; details: rat whole brain membranes, 0.5nM [3H] ligand
Experimental: (§1) An interaction with benzodiazepine receptors in the central nervous system may be indicative of anxiolytic activity since inhibition of benzodiazepine binding correlates with the clinical efficacy of benzodiazepines. [^3H]-Flunitrazepam and [^3H]-βCCE selectively label benzodiazepine receptors and displacement of this specific binding in vitro by novel compounds in well-washed, frozen rat whole brain membranes is measured essentially as described by Martin and Candy (1978). At the fixed concentration of 0.5nM used, specific binding of both [^3H] ligands represents 80-90% of the total radioactivity bound. Non-specific binding is defined by 10µM clonazepam for each ligand. IC50 values are calculated from log [dose] against % inhibition curves; Ki values are determined using the Cheng-Prusoff equation.

benzodiazepine receptors [2] = assay: Radioligand binding, displacement of [3H]-Flunitrazepam; details: rat whole brain membranes, 0.5nM [3H] ligand; read-out: [^3H]-Flu Ki
Experimental: as §1

Row | Compound | Ki (benzodiazepine receptors [1]) | Ki (benzodiazepine receptors [2])
1 | CCOC(=O)c1cnc2ccsc2c1NNc1ccccc1 [Example E1, 7-(2-Phenylhydrazino)-thieno[3,2-b]pyridine-6-carboxylic acid, ethyl ester, monohydrochloride] | 5000 nM | 7000 nM
2 | CCOC(=O)c1cnc2ccsc2c1NNc1ccc([N+](=O)[O-])cc1 [Example E3, 7-(2-(4-Nitrophenyl)hydrazino)-thieno[3,2-b]pyridine-6-carboxylic acid, ethyl ester, monohydrochloride] | 1500 nM | 1000 nM
3 | CCOC(=O)c1cnc2ccsc2c1NNc1ccc(C)cc1 [Example E5, 7-(2-(4-Methylphenyl)hyarazino)-thieno[3,2-b]pyridine-6-carboxylic acid, ethyl ester, tnonohydrochloride] | > 100000 nM | 6500 nM
4 | CCOC(=O)c1cnc2ccsc2c1NNc1ccccn1 [Example E6, 7-(2-(2-Pyridyl)hydrazino)-thieno[3,2-b]pyridihe-6-carboxylic acid, ethyl ester, monohydrochloride] | 360 nM | 350 nM
5 | CCOC(=O)c1cnc2ccsc2c1NNc1ccc(OC)cc1 [Example E8, 7-{2-(4-Methoxyphenyl)hydrazino)-thieno[3,2-b]pyridine-6-carboxylic acid, ethyl ester, monbhydrochloride] | 3300 nM | 2400 nM
6 | CCOC(=O)c1c(C)nc2ccsc2c1NNc1ccccc1 [Example E10, 5-Methyl-7-(2-phenylhydrazino)-thieno[3,2-b]pyridine-6-carboxylic acid, ethyl ester, monohydrochloride] | 23000 nM | 39000 nM
7 | CCOC(=O)c1c(C)nc2ccsc2c1NNc1ccc(Cl)cc1 [Example E11, 7-(2-(4-Chlorophenyl)hydrazino)-5-methyl-thieno[3,2-b] pyridine-6-carboxylic acid, ethyl estet, monohydrochloride] | 290 nM | 200 nM
8 | Cc1[nH]c2ccsc2c2nn(-c3ccc(Cl)cc3)c(=O)c1-2 [Example E20, 2-(4-Chlorophenyl)-2,5-dihydro-4-methyl-3H-pyrazolo [3,4-d]thieno[3,2-b]pyridin-3-one] | 2200 nM | 1000 nM
9 | O=c1c2c[nH]c3ccsc3c-2nn1-c1ccc(Cl)cc1 [Example E21, 2-(4-Chlorophenyl)-2,5-dihydro-3H-pyrazolo[3,4-d]thieno [3,2-b]pyridin-3-one] | 0.38 nM | 0.46 nM
10 | O=c1c2c[nH]c3ccsc3c-2nn1-c1cc(Cl)cc(Cl)c1 [Example E22, 2-(3,5-Dichlorophenyl)-2,5-dihy dro-3H-pyrazolo[3,9-d] thieno[3,2-b]pyrirlin-3-one] | 170 nM | 180 nM
11 | Cc1ccc(-n2nc3c4sccc4[nH]cc-3c2=O)cc1 [Example E23, 2,5-Dihydro-2-(4-methylphenyl)-3H-pyrazolo[3,4-d]thieno [3,2-b]pyridin-3-one] | 0.31 nM | 0.82 nM
12 | COc1ccc(-n2nc3c4sccc4[nH]cc-3c2=O)cc1 [Example E24, 2,5-Dihydro-2-(4-methoxyphenl)-3H-pyrazolo[3,4-d]thieno [3,2-b]pyridin-3-one] | – | 0.23 nM
13 | Cc1[nH]c2ccsc2c2nn(-c3ccccc3)c(=O)c1-2 [Example E25, 2,5-Dihydro-4-methl-2-phenyl-3H-pyrazolo[3,4-d]thieno [3,2-b]pyridin-3-one] | 107 nM | 99 nM
14 | CCc1cc2c3nn(-c4ccc(Cl)cc4)c(=O)c-3c[nH]c2s1 [Example E28, 2-(4-Chlorophenyl)-2,5-dihydro-7-ethyl-3H-pyrazolo[3,4-d] thieno[2,3-b]pyridin-3-one] | – | 1.8 nM
15 | CCc1cc2c3nn(-c4ccc(Cl)cc4)c(=O)c-3c(C)[nH]c2s1 [Example E29, 2-(4-Chlorophenyl)-2,5-dihydro-7-ethyl-4-methyl-3H-pyrazolo[3,4-d]thieno[2,3-b]pyridin-3-one] | – | 568 nM
16 | O=c1c2c[nH]c3ccsc3c-2nn1-c1ccccn1 [Example E30] | – | 0.7 nM
17 | O=c1c2c[nH]c3cscc3c-2nn1-c1ccc(Cl)cc1 [Example E31, 2-(4-Chlorophenyl)-2,5-dihydro-3H-pyrazolo[3,4-d]thieno [3,4-b]pyridin-3-one] | – | 0.32 nM
